Results reported in the supplement of paper PMC8882468.

Columns and labels:
Experiment in all cases: CTG-3D luminescence at 96 h relative to day-0 seeding control (ratio to day 0); higher = more growth / less cytotoxicity
HCI-027 = tested on: HCI-027 (organoid from a triple-negative breast cancer xenograft)
Experimental: (§1)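 PDxO 3D drug screen (set 2), 8-point dose, 96 h; CTG-3D luminescence normalised to day-0 seeding control (mean of 4 wells each).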

HCI-015 = tested on: HCI-015 (organoid from a triple-negative breast cancer xenograft)
Experimental: as §1

HCI-002 = tested on: HCI-002 (organoid from a triple-negative breast cancer xenograft)
Experimental: as §1

HCI-023 = tested on: HCI-023 (organoid from a triple-negative breast cancer xenograft)
Experimental: as §1

HCI-025 = tested on: HCI-025 (organoid from a breast cancer xenograft)
Experimental: as §1

CC/C(=C(\c1ccc(O)cc1)c1ccc(OCCN(C)C)cc1)c1ccccc1 [4-hydroxytamoxifen]
CTG-3D luminescence at 96 h
Conditions | 12.5 pM | 0.00025 µM | 0.005 µM | 0.1 µM | 1 µM | 10 µM | 100 µM | 625 fM
HCI-002, days in culture: 127 | 2.42 | 2.73 | 2.8 | 2.99 | 2.6 | 2.18 | 0.0155 | 2.75
HCI-002, days in culture: 155 | 4.99 | 5.16 | 5.23 | 5.86 | 4.71 | 4.14 | 0.0228 | 4.09
HCI-002, days in culture: 168 | 3.07 | 2.97 | 4.33 | 2.96 | 3.6 | 0.901 | 0.00411 | 4.11
HCI-015, days in culture: 333 | 1.04 | 1.94 | 1.26 | 1.29 | 1.39 | 0.469 | 0.0144 | 2.19
HCI-015, days in culture: 355 | 3.76 | 3.54 | 1.5 | 2.75 | 0.935 | 1.57 | 0.00605 | 1.84
HCI-015, days in culture: 369 | 2.01 | 1.59 | 2.11 | 1.32 | 1.19 | 0.943 | 0.00584 | 1.66
HCI-023, days in culture: 223 | 2.56 | 1.54 | 1.73 | 1.73 | 1.16 | 1.64 | 0.0104 | 2.1
HCI-023, days in culture: 238 | 1.29 | 1.34 | 1.35 | 1.29 | 1.4 | 1.46 | 0.00895 | 1.43
HCI-023, days in culture: 252 | 2.34 | 1.72 | 1.66 | 1.88 | 1.73 | 1.63 | 0.00241 | 1.66
HCI-025, days in culture: 175 | 1.51 | 1.63 | 1.71 | 2.13 | 2.44 | 1.28 | 0.0136 | 1.6
HCI-025, days in culture: 189 | 2.13 | 1.92 | 1.2 | 1.78 | 1.33 | 0.709 | 0.00308 | 2.68
HCI-025, days in culture: 212 | 1.57 | 0.956 | 1.22 | 1.48 | 0.341 | 1.41 | 0.0176 | 1.14
HCI-025, days in culture: 224 | 2.08 | 1.8 | 1.69 | 1.65 | 2.16 | 0.525 | 0.00432 | 1.85
HCI-027, days in culture: 145 | 1.3 | 2.12 | 1.24 | 1.83 | 1.18 | 0.699 | 0.00408 | 1.73
HCI-027, days in culture: 158 | 2.04 | 2.76 | 2.17 | 2.08 | 1.97 | 1.36 | 0.00947 | 4.26
HCI-027, days in culture: 164 | 1.94 | 2.01 | 1.46 | 2.16 | 1.19 | 1.86 | 0.0151 | 1.7
HCI-027, days in culture: 176 | 3.64 | 3.33 | 1.45 | 1.08 | 2.78 | 0.382 | 0.00762 | 2.5
HCI-027, days in culture: 186 | 1.39 | 2.63 | 2.25 | 1.45 | 0.447 | 0.154 | 0.0028 | 2.27
